{"source": "patent US5206229A", "about": "“Vitamin D analogues” (Leo Pharmaceutical Products LTD, priority 1988, dated 1993)", "key": {"[1]": {"conditions": "in vivo; cited from earlier work"}, "cell proliferation [2]": {"tested_on": "cell proliferation", "conditions": "cited from earlier work"}, "interleukins": {"tested_on": "interleukins", "conditions": "cited from earlier work"}, "differentiation of cells": {"tested_on": "differentiation of cells", "conditions": "cited from earlier work"}, "[3]": {"tested_on": "chicken intestinal receptor", "conditions": "compared with 1,25(OH)2 D3; cited from earlier work"}, "rat intestinal receptor": {"tested_on": "rat intestinal receptor", "conditions": "compared with 1,25(OH)2 D3; cited from earlier work"}, "[4]": {"tested_on": "receptor in a human myeloid leukemia cell line (HL-60)", "conditions": "compared with 1,25(OH)2 D3; cited from earlier work"}, "[5]": {"conditions": "in vivo; compared with 1,25(OH)2 D3; cited from earlier work"}, "HL-60 cells": {"tested_on": "HL-60 cells", "conditions": "in vitro; more potent than 1,25(OH)2 D3; cited from earlier work"}, "[6]": {"conditions": "in vivo; cited from earlier work", "remark": "listed apart in the source"}, "cell differentiation [7]": {"tested_on": "cell differentiation", "conditions": "more potent than 1,25(OH)2 D3; cited from earlier work"}, "[8]": {"tested_on": "human monocytic tumour cell line", "experiment": "induction of cell differentiation in a human monocytic tumour cell line", "format": "cell-based", "conditions": "compared with 1,25(OH)2 D3"}, "[9]": {"experiment": "calcium metabolism in rats (hypercalciuria, hypercalcemia)"}, "[10]": {"tested_on": "human monocytic tumour cell line", "experiment": "inhibition of proliferation of tumour cells", "format": "cell-based", "conditions": "compared with 1,25(OH)2 D3"}, "[11]": {"conditions": "cited from earlier work"}, "[12]": {"tested_on": "intestinal vitamin D receptor", "conditions": "in vitro; compared with 1,25(OH)2 D3; cited from earlier work"}, "cell differentiation [13]": {"tested_on": "cell differentiation", "conditions": "cited from earlier work"}, "cell proliferation [14]": {"tested_on": "cell proliferation", "conditions": "cited from earlier work", "remark": "listed apart in the source"}}}
{"smiles": "C=C1/C(=C\\C=C2/CCC[C@]3(C)[C@@H]([C@H](C)CCCC(C)(C)O)CC[C@@H]23)C[C@@H](O)C[C@@H]1O", "note": "[1,25(OH)2 D3, 1α,25-dihydroxy-vitamin D3]", "values": [{"measurement": "effect on calcium metabolism", "setting": "[1]", "result": "well known potent effect"}, {"measurement": "inhibition of excessive cell proliferation", "setting": "cell proliferation [2]", "result": "inhibit excessive cell proliferation"}, {"measurement": "effect on interleukins", "setting": "interleukins", "result": "influences the effects and/or production of interleukins"}, {"measurement": "stimulation of differentiation of cells", "setting": "differentiation of cells", "result": "able to stimulate the differentiation of cells"}]}
{"smiles": "C=C1/C(=C\\C=C2/CCC[C@]3(C)[C@@H]([C@H](C)CCCCC(C)(C)O)CC[C@@H]23)C[C@@H](O)C[C@@H]1O", "note": "[24-Homo-1,25-dihydroxyvitamin D3]", "values": [{"measurement": "binding affinity to the chicken intestinal receptor", "setting": "[3]", "result": "the same binding affinity as 1,25(OH)2 D3"}, {"measurement": "binding affinity to the rat intestinal receptor", "setting": "rat intestinal receptor", "result": "the same binding affinity as 1,25(OH)2 D3"}, {"measurement": "binding affinity to the receptor in HL-60", "setting": "[4]", "result": "the same binding affinity as 1,25(OH)2 D3"}, {"measurement": "potency in calcium metabolism assessments", "setting": "[5]", "result": "significantly less potent"}, {"measurement": "potency in inducing differentiation of HL-60 cells relative to 1,25(OH)2 D3", "setting": "HL-60 cells", "result": 10, "unit": "fold"}]}
{"smiles": "C=C1/C(=C\\C=C2/CCC[C@]3(C)[C@@H]([C@H](C)CCCC(O)(CCC)CCC)CC[C@@H]23)C[C@@H](O)C[C@@H]1O", "note": "[26,27-diethyl-1α,25-dihydroxyvitamin D3]", "values": [{"measurement": "vitamin D activity (calcium metabolism effects)", "setting": "[6]", "result": "almost no vitamin D activity"}, {"measurement": "potency in inducing cell differentiation relative to 1,25(OH)2 D3", "setting": "cell differentiation [7]", "result": 10, "unit": "fold"}]}
{"smiles": "C=C1/C(=C\\C=C2/CCC[C@]3(C)[C@@H]([C@H](C)CCCC(C)(O)CC)CC[C@@H]23)C[C@@H](O)C[C@@H]1O", "note": "(some centres unmarked) [26-homo-1,25-dihydroxyvitamin D3]", "values": [{"measurement": "binding affinity to the chicken intestinal receptor", "setting": "[3]", "result": "the same binding affinity as 1,25(OH)2 D3"}, {"measurement": "binding affinity to the rat intestinal receptor", "setting": "rat intestinal receptor", "result": "the same binding affinity as 1,25(OH)2 D3"}, {"measurement": "binding affinity to the receptor in HL-60", "setting": "[4]", "result": "the same binding affinity as 1,25(OH)2 D3"}, {"measurement": "potency in calcium metabolism assessments", "setting": "[5]", "result": "more potent"}, {"measurement": "potency in inducing differentiation of HL-60 cells relative to 1,25(OH)2 D3", "setting": "HL-60 cells", "result": 10, "unit": "fold"}]}
{"smiles": "C=C1/C(=C\\C=C2/CCC[C@]3(C)[C@@H]([C@H](C)CCCCCC(C)(C)O)CC[C@@H]23)C[C@@H](O)C[C@@H]1O", "note": "[Compound 36, 1(S),3(R)-Dihydroxy-20(R)-(6-hydroxy-6-methyl-1-heptyl)-9,10-secopregna-5(Z),7(E),10(19)-triene]", "values": [{"measurement": "concentration needed to induce cell differentiation", "setting": "[8]", "result": "the same low concentrations as 1,25(OH)2 D3"}, {"measurement": "in vivo potency on calcium metabolism", "setting": "[9]", "result": "lower in vivo potency"}, {"measurement": "concentration effective in inhibiting proliferation", "setting": "[10]", "result": "the same low concentrations as 1,25(OH)2 D3"}]}
{"smiles": "C=C1/C(=C\\C=C2/CCC[C@]3(C)[C@@H]([C@H](C)CCCCCCC(C)(C)O)CC[C@@H]23)C[C@@H](O)C[C@@H]1O", "note": "[Compound 37, 1(S),3(R)-Dihydroxy-20(R)-(7-hydroxy-7-methyl-1-octyl)-9,10-secopregna-5(Z),7(E),10(19)-triene]", "values": [{"measurement": "concentration needed to induce cell differentiation", "setting": "[8]", "result": "the same low concentrations as 1,25(OH)2 D3"}, {"measurement": "in vivo potency on calcium metabolism", "setting": "[9]", "result": "lower in vivo potency"}, {"measurement": "concentration effective in inhibiting proliferation", "setting": "[10]", "result": "the same low concentrations as 1,25(OH)2 D3"}]}
{"smiles": "C=C1/C(=C\\C=C2/CCC[C@]3(C)[C@@H]([C@H](C)/C=C/CCCCC(C)(C)O)CC[C@@H]23)C[C@@H](O)C[C@@H]1O", "note": "[Compound 38]", "values": [{"measurement": "concentration needed to induce cell differentiation", "setting": "[8]", "result": "the same low concentrations as 1,25(OH)2 D3"}, {"measurement": "in vivo potency on calcium metabolism", "setting": "[9]", "result": "lower in vivo potency"}, {"measurement": "concentration effective in inhibiting proliferation", "setting": "[10]", "result": "the same low concentrations as 1,25(OH)2 D3"}]}
{"smiles": "C=C1/C(=C\\C=C2/CCC[C@]3(C)[C@@H]([C@H](C)/C=C/CCCC(C)(C)O)CC[C@@H]23)C[C@@H](O)C[C@@H]1O", "note": "[Compound 54]", "values": [{"measurement": "concentration needed to induce cell differentiation", "setting": "[8]", "result": "the same low concentrations as 1,25(OH)2 D3"}, {"measurement": "in vivo potency on calcium metabolism", "setting": "[9]", "result": "lower in vivo potency"}, {"measurement": "concentration effective in inhibiting proliferation", "setting": "[10]", "result": "the same low concentrations as 1,25(OH)2 D3"}]}
{"smiles": "C=C1/C(=C\\C=C2/CCC[C@]3(C)[C@@H]([C@H](C)/C=C/[C@@H](O)C4CC4)CC[C@@H]23)C[C@@H](O)C[C@@H]1O", "note": "[MC 903]", "values": [{"measurement": "activity on calcium metabolism in vivo", "setting": "[11]", "result": "only moderate activity"}, {"measurement": "binding to the intestinal vitamin D receptor", "setting": "[12]", "result": "binds equally well as 1,25(OH)2 D3"}, {"measurement": "induction of cell differentiation", "setting": "cell differentiation [13]", "result": "potent inducer of cell differentiation"}, {"measurement": "inhibition of cell proliferation", "setting": "cell proliferation [14]", "result": "inhibitor of cell proliferation"}]}
